Source: US20150094474A1, “AGRICULTURAL CHEMICALS” (Redx Pharma Ltd., priority 2012, published 2015)

What was measured:
Type in all cases: in vivo
Conditions in all cases: 20% concentration
black ants, Lasius niger = experiment: Insect repellent bioassay, black ants (treated tile arena)
Procedure: (§1) A laboratory bioassay was conducted to screen 5 compounds (Icaridin (38); and 4 icaridin analogues: 39, 40a, 42a and 41) for repellent activity against houseflies, Musca domestica, black ants, Lasius niger, German cockroaches, Blattella germanica, and bedbugs, Cimex lectularius. Compounds were diluted in a mixture of ethanol and water and assessed at a 20% concentration. A mixture of ethanol/water only negative control was also included for comparative purposes. These were applied onto an aluminium foil tile, which was placed into one half of an arena. The other half of the arena contained an untreated aluminium foil tile. The number of insects present in the treated and untreated area was assessed every 5 minutes for a total of 20 minutes.
Black ants, Lasius niger, were field collected from the Cardiff area. Mixed age worker ants were used in the experiments.
(§2) Temperature was maintained between 24.2 and 24.6° C. and relative humidity ranged between 27.5% and 43.5%, throughout the experimental period.
(§3) The tested compounds were diluted in ethanol and water to a concentration of 20% (w/w: compound 20%, ethanol 40%, water 40%). The concentrates were prepared at room temperature and stirred for approximately 15 minutes using a vortex mixer. A negative control (mixture of ethanol:water 50:50) was also included in the testing for comparative purposes. Treatments were applied directly on to a non porous surface (aluminium foil), using a Gilson pipette at a rate of 0.225 ml per 225 cm^2 surface tile. A small piece of acetate was used to evenly spread the treatments across the entire surface of the tile.
(§4) For the testing against ants, cockroaches and bedbugs: A clear plastic container was used measuring approximately 34 cm long×21 cm wide×20 cm high. This was divided into two halves. The treated aluminium foil was placed in one half and the other half contained untreated foil. Food (sugar cube for black ants and bran pellet for cockroaches) and water (damp cotton wool) were placed in each half where appropriate. Twenty ants/cockroaches and ten bedbugs were placed in the centre of the arena. The number of insects in each half was assessed at 5 minute intervals for a total of 20 minutes.
(§5) Three to six replicates were performed for each treatment, for each species.

[1] = tested on: bedbugs, Cimex lectularius; experiment: Insect repellent bioassay, bedbugs (treated tile arena)
Procedure: as §1
Bedbugs, Cimex lectularius, were obtained from a laboratory culture maintained at CimexStore (Chepstow, UK). Mixed age and sex adult bedbugs were used in the experiments (see deviation below).
as §2, §3, §4, §5

[2] = tested on: German cockroaches, Blattella germanica; experiment: Insect repellent bioassay, German cockroaches (treated tile arena)
Procedure: as §1
(§6) Houseflies, Musca domestica, and German cockroaches, Blattella germanica, were obtained from a laboratory culture maintained at i2LResearch. Mixed sex and age adult insects (flies were aged 3-6 days old) were used in the experiments.
as §2, §3, §4, §5

[3] = tested on: houseflies, Musca domestica; experiment: Insect repellent bioassay, houseflies (treated tile arena)
Procedure: as §1, §6, §2, §3
For the testing against houseflies: A clear plastic container was used measuring approximately 34 cm long×21 cm wide×20 cm high, with a piece of netting and lid on top. This was divided into two halves using an additional tile with a small slit measuring approximately 2.5 cm×5 cm cut at a height of […] from the base, so that the insects could freely travel between halves. A treated and untreated tile was placed either side of the dividing panel. Twenty flies were placed in the half with the treated surface. Sugar and water was placed in both halves. The number of insects crossing from the treated area into the untreated area was assessed at 5 minute intervals for a total of 20 minutes.
as §5

CCC(C)OC(=O)N1CCCCC1CC(=O)O (stereo not drawn) [Compound 41, 2-(1-sec-Butoxycarbonyl-2-piperidyl)acetic acid]
insects on the treated tile (black ants, Lasius niger; TIME 5 mins): C (greater than 25% were on the treated tile)
insects on the treated tile (black ants, Lasius niger; TIME 10 mins): C (greater than 25% were on the treated tile)
insects on the treated tile (black ants, Lasius niger; TIME 15 mins): C (greater than 25% were on the treated tile)
insects on the treated tile (black ants, Lasius niger; TIME 20 mins): C (greater than 25% were on the treated tile)
insects on the treated tile ([1]; TIME 5 mins): A (10% or less of the insects were on the treated tile)
insects on the treated tile ([1]; TIME 10 mins): B (between 11% and 25% were on the treated tile)
insects on the treated tile ([1]; TIME 15 mins): B (between 11% and 25% were on the treated tile)
insects on the treated tile ([1]; TIME 20 mins): B (between 11% and 25% were on the treated tile)
insects on the treated tile ([2]; TIME 5 mins): B (between 11% and 25% were on the treated tile)
insects on the treated tile ([2]; TIME 10 mins): B (between 11% and 25% were on the treated tile)
insects on the treated tile ([2]; TIME 15 mins): B (between 11% and 25% were on the treated tile)
insects on the treated tile ([2]; TIME 20 mins): B (between 11% and 25% were on the treated tile)
insects moving towards the treated tile ([3]; TIME 5 mins): A (10% or less of the insects were on the treated tile)
insects moving towards the treated tile ([3]; TIME 10 mins): A (10% or less of the insects were on the treated tile)
insects moving towards the treated tile ([3]; TIME 15 mins): B (between 11% and 25% were on the treated tile)
insects moving towards the treated tile ([3]; TIME 20 mins): B (between 11% and 25% were on the treated tile)

CCC(C)OC(=O)N1CCCCC1CC(=O)OC (stereo not drawn) [Compound 42a, sec-Butyl 2-(2-methoxy-2-oxo-ethyl)piperidine-1-carboxylate]
insects on the treated tile (black ants, Lasius niger; TIME 5 mins): B (between 11% and 25% were on the treated tile)
insects on the treated tile (black ants, Lasius niger; TIME 10 mins): B (between 11% and 25% were on the treated tile)
insects on the treated tile (black ants, Lasius niger; TIME 15 mins): B (between 11% and 25% were on the treated tile)
insects on the treated tile (black ants, Lasius niger; TIME 20 mins): A (10% or less of the insects were on the treated tile)
insects on the treated tile ([1]; TIME 5 mins): A (10% or less of the insects were on the treated tile)
insects on the treated tile ([1]; TIME 10 mins): A (10% or less of the insects were on the treated tile)
insects on the treated tile ([1]; TIME 15 mins): A (10% or less of the insects were on the treated tile)
insects on the treated tile ([1]; TIME 20 mins): A (10% or less of the insects were on the treated tile)
insects on the treated tile ([2]; TIME 5 mins): B (between 11% and 25% were on the treated tile)
insects on the treated tile ([2]; TIME 10 mins): B (between 11% and 25% were on the treated tile)
insects on the treated tile ([2]; TIME 15 mins): B (between 11% and 25% were on the treated tile)
insects on the treated tile ([2]; TIME 20 mins): B (between 11% and 25% were on the treated tile)
insects moving towards the treated tile ([3]; TIME 5 mins): A (10% or less of the insects were on the treated tile)
insects moving towards the treated tile ([3]; TIME 10 mins): A (10% or less of the insects were on the treated tile)
insects moving towards the treated tile ([3]; TIME 15 mins): B (between 11% and 25% were on the treated tile)
insects moving towards the treated tile ([3]; TIME 20 mins): B (between 11% and 25% were on the treated tile)

CCC(C)OC(=O)N1CCCCC1CCO (stereo not drawn) [Icaridin (38), Icaridin, reference compound]
insects on the treated tile (black ants, Lasius niger; TIME 5 mins): B (between 11% and 25% were on the treated tile)
insects on the treated tile (black ants, Lasius niger; TIME 10 mins): B (between 11% and 25% were on the treated tile)
insects on the treated tile (black ants, Lasius niger; TIME 15 mins): B (between 11% and 25% were on the treated tile)
insects on the treated tile (black ants, Lasius niger; TIME 20 mins): A (10% or less of the insects were on the treated tile)
insects on the treated tile ([1]; TIME 5 mins): A (10% or less of the insects were on the treated tile)
insects on the treated tile ([1]; TIME 10 mins): A (10% or less of the insects were on the treated tile)
insects on the treated tile ([1]; TIME 15 mins): A (10% or less of the insects were on the treated tile)
insects on the treated tile ([1]; TIME 20 mins): A (10% or less of the insects were on the treated tile)
insects on the treated tile ([2]; TIME 5 mins): B (between 11% and 25% were on the treated tile)
insects on the treated tile ([2]; TIME 10 mins): B (between 11% and 25% were on the treated tile)
insects on the treated tile ([2]; TIME 15 mins): A (10% or less of the insects were on the treated tile)
insects on the treated tile ([2]; TIME 20 mins): A (10% or less of the insects were on the treated tile)
insects moving towards the treated tile ([3]; TIME 5 mins): B (between 11% and 25% were on the treated tile)
insects moving towards the treated tile ([3]; TIME 10 mins): C (greater than 25% were on the treated tile)
insects moving towards the treated tile ([3]; TIME 15 mins): C (greater than 25% were on the treated tile)
insects moving towards the treated tile ([3]; TIME 20 mins): C (greater than 25% were on the treated tile)
